Target: T1, human FAAH (Homo sapiens, UniProt O00519)
T1 construct: made in house; host or cells: HEK-293 cells stably overexpressing human FAAH-1; membrane-enriched lysate
T1 sequence (O00519 1-579): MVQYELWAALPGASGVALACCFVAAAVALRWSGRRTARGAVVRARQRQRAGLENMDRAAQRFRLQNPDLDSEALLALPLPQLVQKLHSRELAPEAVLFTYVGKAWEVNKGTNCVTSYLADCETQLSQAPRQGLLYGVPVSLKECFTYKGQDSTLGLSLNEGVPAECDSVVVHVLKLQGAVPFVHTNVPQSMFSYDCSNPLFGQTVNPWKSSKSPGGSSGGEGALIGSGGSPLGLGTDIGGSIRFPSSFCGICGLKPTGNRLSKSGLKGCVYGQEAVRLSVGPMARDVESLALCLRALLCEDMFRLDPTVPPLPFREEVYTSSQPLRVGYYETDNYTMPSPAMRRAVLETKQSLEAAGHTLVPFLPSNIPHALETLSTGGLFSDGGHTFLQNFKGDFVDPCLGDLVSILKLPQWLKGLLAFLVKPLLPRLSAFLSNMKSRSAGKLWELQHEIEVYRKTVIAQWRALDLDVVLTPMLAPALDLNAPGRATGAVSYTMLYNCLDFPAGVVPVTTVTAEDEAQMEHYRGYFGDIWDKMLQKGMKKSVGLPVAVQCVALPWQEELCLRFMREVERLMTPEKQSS
Test: Fluorogenic human-FAAH-1 assay
Assay type: biochemical
Procedure: Human recombinant proteins were obtained from HEK-293 stable overexpressing human NAAA, AC, and FAAH-1 cell lines, respectively. Cells were grown in Dulbecco’s modified Eagle medium (DMEM) containing 10% FBS, 1% glutamine, 1 mM sodium pyruvate, and 500 μg/mL geneticin (G418). To obtain a high-density cell proliferation, h-NAAA-HEK-293 cells were grown in BelloCell-500 bottle, a compact bioreactor. On the contrary, h-AC and h-FAAH-1-HEK-293 cells were grown in 150 mm dishes and scraped off with cold PBS 1× pH 7.4 at 80% confluence. Cell pellets were collected and stored at −80 °C until protein preparation.
Cell pellets, obtained by centrifugation at 300g for 7 min at 4 °C, were resuspended in 20 mM Tris-HCl pH 7.4, 0.32 M sucrose, disrupted by sonication (10 pulses, 5 times), and centrifuged (1000g, 10 min, 4 °C). […] Membrane pellets were resuspended in PBS to obtain h-FAAH-1 preparation; the protein concentration was measured by the Bradford Protein Assay (BioRad) and samples were aliquoted and stored at −80 °C until use.
The fluorescence assay to measure FAAH activity was performed in 96-well black plates (Black OptiPlate-96 F; PerkinElmer, Massachusetts, USA): 2.5 μg of human FAAH-1 membrane preparation was preincubated for 50 min at 37 °C, in 190 μL of assay buffer (50 mM Tris-HCl pH 7.4, 0.05% Fatty acid-free BSA) with 5 μL of inhibitor or 5 μL DMSO to measure FAAH total activity. […]

CCOCc1cnc(O[C@H]2C[C@H]3CC[C@@H](C2)N3S(=O)(=O)c2c(C)n[nH]c2C)cn1 [Compound 50, (1R,3r,5S)-8-((3,5-Dimethyl-1H-pyrazol-4-yl)sulfonyl)-3-((5-(ethoxymethyl)pyrazin-2-yl)oxy)-8-azabicyclo[3.2.1]octane]
inhibition at 30 µM: 25%
